Legend:
Format in all cases: physicochemical
[1] = Fluorescence life time in ethanol; details: for Fluorescence life time (τFl): for Pheo 16 the longer component of a double exponential decay; for Fluorescence life time (τFl), second decay component: double exponential decay
[2] = Singlet oxygen quantum yield (photoinduced singlet oxygen) in ethanol; details: for singlet oxygen quantum yield (ΦA): in ethanol, before light exposure
Excerpt: The quantum yield of the photoinduced singlet oxygen of Pheo (0.52) decreases to 0.05 for Pheo 16 (see Table 1).
(§1) They equal to the parameters of the free Pheo.

[3] = Fluorescence intensity in ethanol; details: versus fluorescence intensity of Pheo in ethanol
Excerpt: The fluorescence spectra of al samples show nearly the same shape. However, the fluorescence intensity of Pheo 16 in ethanol is 50 times smaller than the fluorescence intensity of Pheo in ethanol (see FIG. 2).

[4] = Release of Pheo from dendrimer complex by light exposure (MALDI); details: after 30 min light exposure with UV lamp (~1 kJ)
Excerpt: as §1
However, this process occurs only in the presence of oxygen. Presumably, the primary generated singlet oxygen caused the separation of the bonds between the dye molecules and the dendrimer.

Fluorescence life time (τFl) [1] [ns]	Fluorescence life time (τFl) ([1]; listed as Pheo) [ns]	Compound	singlet oxygen quantum yield (ΦA) [2]	Fluorescence life time (τFl), second decay component ([1]; relation of amplitudes 2 to 1) [ns]	Fluorescence life time (τFl), second decay component ([1]; relation of amplitudes 2 to 1, listed as Pheo-16-dendrimer complex) [ns]	fluorescence lifetime, first component of double exponential decay ([1]; relation of amplitudes 2 to 1) [ns]	singlet oxygen quantum yield after light exposure ([2]; after light exposure of a 3 ml sample with 40 J and 514 nm)	fluorescence intensity relative to Pheo [3] [times smaller]	release of Pheo on light exposure [4]
6.1 ± 0.3		C=Cc1c(C)c2cc3nc(c4c5[nH]c(cc6nc(cc1[nH]2)C(C)=C6CC)c(C)c5C(=O)[C@@H]4C(=O)OC)[C@@H](CCC(=O)ON1C(=O)CCC1=O)[C@@H]3C [Pheo-succinimide ester, pheophorbide a-succinimide ester]	0.55						
5.7 ± 0.2	5.7	Pheophorbide a [reference compound]	0.52						

Compound	Fluorescence life time (τFl) [1] [ns]	Fluorescence life time (τFl) ([1]; listed as Pheo) [ns]	singlet oxygen quantum yield (ΦA) [2]	Fluorescence life time (τFl), second decay component ([1]; relation of amplitudes 2 to 1) [ns]	Fluorescence life time (τFl), second decay component ([1]; relation of amplitudes 2 to 1, listed as Pheo-16-dendrimer complex) [ns]	fluorescence lifetime, first component of double exponential decay ([1]; relation of amplitudes 2 to 1) [ns]	singlet oxygen quantum yield after light exposure ([2]; after light exposure of a 3 ml sample with 40 J and 514 nm)	fluorescence intensity relative to Pheo [3] [times smaller]	release of Pheo on light exposure [4]
Pheophorbide a-diaminobutane-polypropylene-imine Dendrimer 3.0 Complex [Pheo 16]	4.9 ± 0.3		0.05	0.5	0.5 ± 0.3	4.5	0.47	50	release of Pheo

Source: patent US20060292112A1, “Dendrimer-photosensitizer complexes for medical applications” (priority 1999, published 2006)
